Results taken from patent US20260234164A1, “BIPHENYL COMPOUND AS IMMUNOMODULATOR, PREPARATION METHOD THEREFOR AND USE THEREOF” (SHENZHEN CHIPSCREEN BIOSCIENCES CO., LTD., priority 2021, published 2026).

test system: PD-1/PD-L1-mediated T cell activation inhibitory signal; assay: CHO-PD-L1-CD3L / Jurkat-PD-1-NFAT co-culture luciferase reporter assay; assay type: cell-based; details: Homo sapiens, co-culture 6 h, read-out: EC50 blocking PD-1/PD-L1-mediated T cell activation inhibitory signal
Description: In order to detect the effect of the interaction between PD-1 and PD-L1 on T cell activation signals in the immune response, CHO-PD-L1-CD3L cells stably expressing human PD-L1 molecules and anti-CD3 single-chain antibody (ScFv) and Jurkat-PD-1-NFAT cells stably expressing human PD-1 molecule and NFAT reporter gene were constructed. When the two kinds of cells were co-incubated, the binding of anti-CD3ScFv on the surface of CHO cells and the membrane CD3 molecules of Jurkat cells would transmit an activation signal to Jurkat cells, but simultaneously, the binding of PD-L1 on the surface of CHO cells and PD-1 molecules on the surface of Jurkat cells would transmit an inhibitory signal inward to prevent expression of the luciferase reporter gene. When immune checkpoint antibodies or small molecule inhibitors were added, the binding of PD-1 and PD-L1 was blocked, the NFAT pathway activated by T cell activation signal mediated by cross-linking of CD3ScFv antibody and CD3 was no longer affected by the inhibitory signal, and the downstream luciferase reporter gene started to be expressed. A chemiluminescent signal proportional to reporter gene activation was detected by adding a catalytic substrate.
CHO-PD-L1-CD3L cells expressing human PD-L1 molecule and anti-CD3 single-chain antibody (ScFv) and Jurkat-PD-1-NFAT cells stably expressing human PD-1 molecule and NFAT reporter gene were independently constructed and provided by Dr. Chen Bo (KeyMed Bioscience (Chengdu) Co., Ltd.). Puromycin (Cat #540411) and Hygromycin B (Cat #V900372) for stable culture of transfected cells were purchased from Sigma, PMA (Cat #P1585) was purchased from Sigma, anti-human PD-L1 antibody (Cat #GMP-A066) was purchased from Novoprotein Company. Luciferase substrate solution (Cat #E6485) and luciferase-specific cell lysis solution 5× (Cat #E1531) were purchased from Promega. Fluorescence detection instrument Tecan (Spark 10M) was purchased from Switzerland Tecan Company.
(1) The day before the experiment, 100 μL of CHO-PD-L1-CD3L cells were inoculated in each well of a 96-well cell culture plate (about 4×10^4 cells/well) with a medium of DMEM/F12 containing 10% FBS, 8 μg/mL puromycin and 200 μg/mL hygromycin B, and cultured overnight at 37° C.
(2) The test compounds were diluted with 0.1% PBST into different concentration gradients, added into 96-well plates, and pre-incubated for 30 min. Jurkat-PD-1-NFAT cell count was adjusted to 2×10^5 cells/mL with the RPMI 1640 complete medium containing 10% FBS, […]8 μg/mL puromycin and 200 μg/mL hygromycin B. 100 ng/mL PMA (the stock solution was prepared with DMSO to a concentration of 10 mg/mL) was added to amplify T cell activation signal. 100 μL of the above Jurkat-PD-1-NFAT cells was added to each well of the 96-well plate for co-culture.
(3) When detecting the reaction, a control group was provided, including a solvent control without adding test compounds and a positive control with addition of anti-human PD-1 antibody as the experimental system. All detections were performed with duplicates.
(4) After continuous incubation at 37° C. for 6 h, 40 μL of 5× cell lysate was directly added, and mixed well. The plate was placed at room temperature for 10 min to completely lyse the cells. 50 μL of the lysed cell solution was transferred to a fluorescence detection plate, and added with 30 μL of luciferase substrate solution. The chemiluminescence detection program on the fluorescence detector was immediately selected for detection.
(5) The inhibition rate of T cell activation signal at the cellular level of the test compounds was calculated as follows: Inhibition rate of T cell activation signal (%)=(the original value of chemiluminescence in the detection well−solvent control)/(the highest original value of chemiluminescence detected in the compound detection well−solvent control)×100%. […]

Compound | EC50 [nM]
[2H]C([2H])([2H])OCC12CCC(CCN3CCc4c(nc(C(=O)Nc5cccc(-c6cccc(NC(=O)c7nc8c(n7C)CCN(CCC79CCC(C(=O)O)(CC7)C9)C8)c6Cl)c5F)n4C)C3)(CC1)C2 (single isomer, unassigned) [Compound I-2, 4-(2-(2-((2-chloro-2′-fluoro-3′-(5-(2-(4-((methoxy-d3)methyl)bicyclo[2.2.1]heptane-1-y 1)ethyl)-1-methyl-4,5,6,7-tetrahydro-1H-imidazo[4,5-c]pyridine-2-carboxamido)-[1,1′-biphenyl]-3-yl)carbamoyl)-1-methyl-1,4,6,7-tetrahydro-5H-imidazo[4,5-c]pyridin-5-yl)ethyl)bicyclo[2.2.1]heptane-1-carboxylic acid] | 19.8
[2H]C([2H])([2H])OCC12CCC(CCN3CCc4c(nc(C(=O)Nc5cccc(-c6cccc(NC(=O)c7nc8c(n7C)CCN(CCC79CCC(C(=O)O)(CC7)C9)C8)c6Cl)c5Cl)n4C)C3)(CC1)C2 [Compound I-1, 4-(2-(2-((2,2′-dichloro-3′-(5-(2-(4-((methoxy-d3)methyl)bicyclo[2.2.1]heptane-1-yl)ethyl)-1-methyl-4,5,6,7-tetrahydro-1H-imidazo[4,5-c]pyridine-2-carboxamido)-[1,1′-biphenyl]-3-yl)carbamoyl)-1-methyl-1,4,6,7-tetrahydro-5H-imidazo[4,5-c]pyridin-5-yl)ethyl)bicyclo[2.2.1]heptane-1-carboxylic acid] | 13.8
[2H]C([2H])([2H])OCC12CCC(CCN3CCc4c(nc(C(=O)Nc5cccc(-c6cccc(NC(=O)c7nc8c(n7C)CCN(CCC79CCC(C(=O)O)(CC7)C9)C8)c6C)c5Cl)n4C)C3)(CC1)C2 [Compound I-3, 4-(2-(2-((2′-chloro-3′-(5-(2-(4-((methoxy-d3)methyl)bicyclo[2.2.1]heptane-1-yl)ethyl)-1-methyl-4,5,6,7-tetrahydro-1H-imidazo[4,5-c]pyridine-2-carboxamido)-2-methyl-[1,1′-biphenyl]-3-yl)carbamoyl)-1-methyl-1,4,6,7-tetrahydro-5H-imidazo[4,5-c]pyridin-5-yl)ethyl)bicyclo[2.2.1]heptane-1-carboxylic acid] | 10.6
[2H]C([2H])([2H])OCC12CCC(CCN3CCc4c(nc(C(=O)Nc5cccc(-c6cccc(NC(=O)c7nc8c(n7C)CCN(CCC79CCC(C(=O)O)(CC7)C9)C8)c6Cl)c5C)n4C)C3)(CC1)C2 [Compound I-4, 4-(2-(2-((2-chloro-3′-(5-(2-(4-((methoxy-d3)methyl)bicyclo[2.2.1]heptane-1-yl)ethyl)-1-methyl-4,5,6,7-tetrahydro-1H-imidazo[4,5-c]pyridine-2-carboxamido)-2′-methyl-[1,1′-biphenyl]-3-yl)carbamoyl)-1-methyl-1,4,6,7-tetrahydro-5H-imidazo[4,5-c]pyridin-5-yl)ethyl)bicyclo[2.2.1]heptane-1-carboxylic acid] | 9.72
[2H]C([2H])([2H])OCC12CCC(CCN3CCc4c(nc(C(=O)Nc5cccc(-c6cccc(NC(=O)c7nc8c(n7C([2H])([2H])[2H])CCN(CCC79CCC(C(=O)O)(CC7)C9)C8)c6Cl)c5Cl)n4C([2H])([2H])[2H])C3)(CC1)C2 [Compound I-5, 4-(2-(2-((2,2′-dichloro-3′-(5-(2-(4-((methoxy-d3)methyl)bicyclo[2.2.1]heptane-1-yl)ethyl)-1-(methyl-d3)-4,5,6,7-tetrahydro-1H-imidazo[4,5-c]pyridine-2-carboxamido)-[1,1′-biphenyl]-3-yl)carbamoyl)-1-(methyl-d3)-1,4,6,7-tetrahydro-5H-imidazo[4,5-c]pyridin-5-yl)ethyl)bicyclo[2.2.1]heptane-1-carboxylic acid] | 12.5

The remaining lines, values ahead:

EC50 [nM] | Compound
19.6 | [2H]C([2H])([2H])OCC12CCC(CCN3CCc4c(nc(C(=O)Nc5cccc(-c6cccc(NC(=O)c7nc8c(n7C([2H])([2H])[2H])CCN(CCC79CCC(C(=O)O)(CC7)C9)C8)c6Cl)c5F)n4C([2H])([2H])[2H])C3)(CC1)C2 (single isomer, unassigned) [Compound I-7, 4-(2-(2-((2-chloro-2′-fluoro-3′-(5-(2-(4-((methoxy-d3)methyl)bicyclo[2.2.1]heptane-1-yl)ethyl)-1-(methyl-d3)-4,5,6,7-tetrahydro-1H-imidazo[4,5-c]pyridine-2-carboxamido)-[1,1′-biphenyl]-3-yl)carbamoyl)-1-(methyl-d3)-1,4,6,7-tetrahydro-5H-imidazo[4,5-c]pyridin-5-yl)ethyl)bicyclo[2.2.1]heptane-1-carboxylic acid]
45.1 | [2H]C([2H])([2H])n1c(C(=O)Nc2cccc(-c3cccc(NC(=O)c4nc5c(n4C([2H])([2H])[2H])CCN(CCC46CCC(C(=O)O)(CC4)C6)C5)c3Cl)c2F)nc2c1CCN(CCC13CCC(COC)(CC1)C3)C2 (single isomer, unassigned) [Compound I-8, 4-(2-(2-((2-chloro-2′-fluoro-3′-(5-(2-(4-(methoxymethyl)bicyclo[2.2.1]heptane-1-yl)ethyl)-1-(methyl-d3)-4,5,6,7-tetrahydro-1H-imidazo[4,5-c]pyridine-2-carboxamido)-[1,1′-biphenyl]-3-yl)carbamoyl)-1-(methyl-d3)-1,4,6,7-tetrahydro-5H-imidazo[4,5-c]pyridin-5-yl)ethyl)bicyclo[2.2.1]heptane-1-carboxylic acid]
15.1 | [2H]c1c([2H])c(NC(=O)c2nc3c(n2C)CCN(CCC24CCC(COC([2H])([2H])[2H])(CC2)C4)C3)c(F)c(-c2c([2H])c([2H])c([2H])c(NC(=O)c3nc4c(n3C)CCN(CCC35CCC(C(=O)O)(CC3)C5)C4)c2Cl)c1[2H] (single isomer, unassigned) [Compound I-14, 4-(2-(2-((2-chloro-2′-fluoro-3′-(5-(2-(4-((methoxy-d3)methyl)bicyclo[2.2.1]heptane-1-y 1)ethyl)-1-methyl-4,5,6,7-tetrahydro-1H-imidazo[4,5-c]pyridine-2-carboxamido)-[1,1′-biphenyl]-3-yl-4,4′,5,5′,6,6′-d6)carbamoyl)-1-methyl-1,4,6,7-tetrahydro-5H-imidazo[4,5-c]pyridin-5-yl)ethyl)bicyclo[2.2.1]heptane-1-carboxylic acid]
12.5 | [2H]C([2H])([2H])n1c(C(=O)Nc2cccc(-c3cccc(NC(=O)c4nc5c(n4C([2H])([2H])[2H])CCN(CCC46CCC(C(=O)O)(CC4)C6)C5)c3Cl)c2Cl)nc2c1CCN(CCC13CCC(COC)(CC1)C3)C2 [Compound I-6, 4-(2-(2-((2,2′-dichloro-3′-(5-(2-(4-((methoxy)methyl)bicyclo[2.2.1]heptane-1-yl)ethyl)-1-(methyl-d3)-4,5,6,7-tetrahydro-1H-imidazo[4,5-c]pyridine-2-carboxamido)-[1,1′-biphenyl]-3-yl)carbamoyl)-1-(methyl-d3)-1,4,6,7-tetrahydro-5H-imidazo[4,5-c]pyridin-5-yl)ethyl)bicyclo[2.2.1]heptane-1-carboxylic acid]
28.1 | [2H]C([2H])([2H])OCC12CCC(CCN3CCc4c(nc(C(=O)Nc5cccc(-c6cccc(NC(=O)c7nc8c(n7C([2H])([2H])[2H])CCN(CCC79CCC(C(=O)O)(CC7)C9)C8)c6Cl)c5C)n4C([2H])([2H])[2H])C3)(CC1)C2 [Compound I-9, 4-(2-(2-((2-chloro-3′-(5-(2-(4-((methoxy-d3)methyl)bicyclo[2.2.1]heptane-1-yl)ethyl)-1-(methyl-d3)-4,5,6,7-tetrahydro-1H-imidazo[4,5-c]pyridine-2-carboxamido)-2′-methyl-[1,1′-biphenyl]-3-yl)carbamoyl)-1-(methyl-d3)-1,4,6,7-tetrahydro-5H-imidazo[4,5-c]pyridin-5-yl)ethyl)bicyclo[2.2.1]heptane-1-carboxylic acid]
